Data reported in patent US20210228523A1, “MODULATORS OF SESTRIN-GATOR2 INTERACTION AND USES THEREOF” (Navitor Pharmaceuticals, Inc., priority 2017, published 2021).

Key:
mTORC1 signaling = experiment: Cell-based mTORC1 activation (Method 2): western blot of phosphorylated S6 Kinase/4EBP1 in leucine-starved HEK293T cells; conditions: concentration 100 μM, shift relative to DMSO control
Procedure: Briefly, 800,000 HEK293T cells were plated in each well of a 6-well plate in DMEM supplemented with 10% fetal bovine serum and antibiotics. […] Cells were then lysed, processed for SDS-PAGE and western blotting was performed with antibodies directed against the mTORC1 substrates phosphorylated S6 Kinase (Thr389) and phosphorylated 4EBP1 (Thr37/46) (Cell Signaling Technology) and loading controls (beta-actin, Santa Cruz Biotechnology) as described in Kang, S. A., et al. Science 341(6144): 364-374 (2013). The intensity of the bands corresponding to the phosphorylated substrates were then normalized to the actin band using the LI-COR® imaging platform.

[1] = biological target: T1, GATOR2/Sestrin2 complexes (Homo sapiens, UniProt P58004); experiment: In vitro PPI assay (Method 1; Western blot assay): Sestrin2 bound to GATOR2 after compound addition to immunoprecipitated FLAG-WDR24 complex; format: binding; conditions: 25 μM, % activity relative to leucine (25 μM = 100%)
T1 construct: endogenous in cells; host or cells: HEK293T cells stably expressing FLAG-WDR24 (lentiviral, pLJM60)
T1 sequence (P58004 1-480): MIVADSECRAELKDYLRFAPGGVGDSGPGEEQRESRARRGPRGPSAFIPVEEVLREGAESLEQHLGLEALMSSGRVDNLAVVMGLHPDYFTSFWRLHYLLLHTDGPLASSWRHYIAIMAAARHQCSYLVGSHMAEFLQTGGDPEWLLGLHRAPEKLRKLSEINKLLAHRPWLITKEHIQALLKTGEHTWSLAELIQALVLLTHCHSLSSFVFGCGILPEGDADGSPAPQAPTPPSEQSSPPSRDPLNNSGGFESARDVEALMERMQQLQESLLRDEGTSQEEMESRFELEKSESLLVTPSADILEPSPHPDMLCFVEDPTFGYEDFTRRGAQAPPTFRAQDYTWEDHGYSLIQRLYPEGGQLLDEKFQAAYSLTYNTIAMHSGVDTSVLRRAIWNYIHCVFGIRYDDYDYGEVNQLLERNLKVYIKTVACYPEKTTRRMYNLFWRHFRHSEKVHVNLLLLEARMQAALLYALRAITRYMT
Source text: This screening assay measured test compound activity in vitro on GATOR2/Sestrin2 complexes purified via immunoprecipitation of stably expressed FLAG-WDR24 from HEK293T cells. HEK293T cells (293 Ts) were engineered to stably express N-terminally tagged FLAG-WDR24 via transduction by lentivirus. Lentiviruses were produced by co-transfection of the lentiviral transfer vector pLJM60 with the […] into HEK-293T cells using the XTremeGene 9 transfection reagent (Roche Diagnostics). The media was changed 24 hours post-transfection to Dulbecco's Modified Eagle's media (DMEM) supplemented with 30% Inactivated Fetal Serum. The virus-containing supernatants were collected 48 and 72 hours after transfection and passed through a 0.45 μm filter to eliminate cells. Target cells in 6-well tissue culture plates were infected in media containing 8 μg/mL polybrene and spin infections were performed by centrifugation at 2,200 rpm for 1 hour. Twenty-four hours after infection, the virus was removed and the cells selected with the appropriate antibiotic. Cells were then grown in DMEM supplemented with 10% fetal bovine serum and antibiotics.
Seventy-two hours later, cells were placed in standard RPMI media formulated with no amino acids and supplemented with 5 mM Glucose (−AA RPMI, US Biological Life Sciences) for 1 hour then subsequently lysed in lysis buffer (40 mM HEPES, 1% Triton, 10 mM sodium β-glycerophosphate, 10 mM sodium pyrophosphate, 2.5 mM MgCl2 and protease inhibitors). To isolate the FLAG-WDR24/endogenous-Sestrin2 complex, crude lysate (equivalent to 2-4 mg of total protein) in a volume of 1 ml was subjected to immunoprecipitation with 30 μl of anti-flag resin (SIGMA) for 2 hours at 4° C., washed twice in cold lysis buffer plus 0.5M NaCl and resuspended in 1 ml of cold cytosolic buffer (40 mM HEPES pH 7.4, 140 mM KCl, 10 mM NaCl, 2.5 mM MgCl2, 0.1% TritonX-100). […] After the incubation period, samples were centrifuged to pellet the FLAG-WDR24/endogenous-Sestrin2 complex bound to the anti-flag resin, the supernatant was completely removed and resin was resuspended in SDS-PAGE sample buffer and boiled for 5 minutes. Samples were then processed by SDS-PAGE and western blots were performed with anti-FLAG (SIGMA) and anti-Sestrin2 (Cell Signaling Technology) antibodies as described in L. Chantranupong, et al., Cell Reports 9:1-8 (2014).
The resulting western blots were scanned and band intensities corresponding to Sestrin2 and FLAG-WDR24 were quantified using the LI-COR® imaging platform. To determine the amount of Sestrin2 bound to GATOR2 for each condition, the band intensity for Sestrin2 was normalized to the band intensity of FLAG-WDR24. […]
72 hours later, cells were placed in standard RPMI media formulated with no amino acids and supplemented with 5 mM Glucose (−AA RPMI, USBiological Life Sciences) for 1 hour then subsequently lysed in lysis buffer (40 mM HEPES, 1% Triton, 10 mM Sodium Beta-Glycerophosphate, 10 mM Sodium Pyrophosphate, 2.5 mM MgCl2 and protease inhibitors). The Flag-WDR24/endogenous-Sestrin2 complex was isolated as follows: crude lysate (equivalent to 2-4 mg of total protein) in a volume of 1 ml was subjected to immunoprecipitation (IP) with 30 μl of anti-flag resin (SIGMA) for 2 hours at 4° C., washed twice in cold lysis buffer plus 0.5M NaCl and resuspended in 1 ml of cold cytosolic buffer (40 mM HEPES pH 7.4, 140 mM KCl, 10 mM NaCl, 2.5 mM MgCl2, 0.1% TritonX-100). Compounds were then added to each sample at a given concentration of 25 μM and incubated with rotation at 4° C. for 30 minutes. After the incubation period, samples were centrifuged to pellet the Flag-WDR24/endogenous-Sestrin2 complex bound to the anti-flag resin, the supernatant was completely removed and resin was resuspended in sodium dodecyl sulfate-polyacrylamide gel electrophoresis (SDS-PAGE) sample buffer and boiled for 5 minutes. […]

mTORC1 = experiment: Western blot of pS6 in rat brain and selected peripheral organs; format: in vivo; conditions: Example D; Leu 500 mg/kg oral; 1 hr post-dose
Procedure: Study Design: Thirty (30) male rats weighing between 175 and 200 g were randomized into 3 study groups (n=10), following a 5-day acclimation period. One hour following dosing rats were sacrificed by conscious decapitation, plasma, brain and selected peripheral tissues were harvested for compound level and WB analysis. Tissues were prepared for WB to quantitate the mTORC1 substrate pS6 as a measure of mTORC1 activity.
The dosing volume based on the weight of the animal (10 mL/kg) was administered by oral gavage. Test articles were prepared the day of dosing.
Tissues Preparations: One hour following dosing rats were sacrificed by conscious decapitation, plasma, brain and peripheral tissues were harvested and immediately frozen in liquid nitrogen. Tissues were thawed and homogenized for 1 min twice using MP homogenizer in Lysis Buffer (Cell lysis buffer: 1% Triton X-100, 50 mM HEPES pH 7.4, 100 mM NaCl, 2 mM EDTA, 10 mM Beta-glycerophosphate, 10 mM Sodium pyrophosphate, and 1 protease inhibitor tab per 50 mL fresh) at 4° C. Lysates were then sonicated on ice for 20 s at 50% amplitude. The protein concentration was determined by Bradford assay and all samples were mixed with loading buffer (50 mM Tris-HCl pH 6.8, 2% SDS, 5% glycerol, 5% β-mercaptoethanol and 0.01% Bromophenol blue) and stored at −20° C. until WB analysis.
Western Blot (WB) Analysis. Equal amounts of each sample (15 μg of total protein) were loaded and separated on NuPAGE 4-12% Bis-Tris gels and transferred to PVDF membrane (Immobilon-FL PVDF membrane, Millipore) using CAPS Buffer (10 mM 3-(Cyclohexylamino)-1-propanesulfonic acid, 12.5% Ethanol pH=10). After transfer, membranes were incubated for 1 hr at room temperature in Odyssey blocking buffer (Licor). After blocking, membranes were incubated at 4° C. overnight with primary antibodies. Primary antibodies used were rabbit anti-[…] (cell signaling; #5364) at 1:1000, mouse anti-GAPDH (Sigma; #G8795) at 1:1000 and mouse anti-a-tubulin (Sigma; #T5168) at 1:10000 in Odyssey blocking buffer. The next day, membranes were washed three times in 1×TBS-Tween (25 mM Tris, pH 7.4, 3.0 mM KCl, 140 mM NaCl and 0.05% Tween-20) and incubated with dye-coupled secondary antibodies (goat anti-mouse IRdye680, and goat anti-rabbit IRdye800 from LI-COR) at 1:20000 in Odyssey blocking buffer for 30 min then wash three times in IX TBS-Tween. Signals were quantified using the Odyssey Infrared Imaging System (LI-COR Bioscience). The resulting densitometric readings were used to generate a ratio of phopho-protein to a-tubulin or GAPDH. The resulting ratio was further normalized to vehicle treated control group.

[2] = tested on: point mutant form of Sestrin2 unable to bind leucine; experiment: ILBA with Flag-tagged point mutant Sestrin2; format: binding, human
Procedure: In one version, the assay was performed with crude lysate generated from a human cell line after a 1-hour period of amino acid starvation (cells are lysed in 1% Triton, 10 mM beta-glycerol phosphate, 10 mM sodium pyrophosphate, 40 mM HEPES [pH 7.4], 150 mM NaCl and 2.5 mM MgCl2). […] After compound incubation, samples were subjected to immunoprecipitation with the CST anti-Sestrin2 antibody for 1.5 hours followed by a 30-minute incubation with protein-A sepharose as described in L. Chantranupong, et al., Cell Reports 9:1-8 (2014). The sepharose conjugated antibody-protein complex was precipitated via centrifugation and the flow-through was subjected to a second round of immunoprecipitation with a rabbit polyclonal anti-Sestrin2 antibody (Protein Tech, #10795-1-AP) to determine that total Sestrin2 protein levels between samples were equal. SDS-PAGE was performed with the immunoprecipitation samples followed by western-blot with the mouse monoclonal anti-Sestrin2 antibody from SIGMA (cat #WH0083667M3).
This assay was also performed in cultured human cells over-expressing Sestrin2 N-terminally fused to a Flag tag. In this version of the assay, the procedure remained the same, but immunoblotting was performed with a mouse anti-Flag antibody (#F3165, SIGMA).

Compound: C[C@H](CC(N)C(=O)O)C(F)(F)F (stereo in doubt) [Compound I-167, (2R,4R)-2-amino-5,5,5-trifluoro-4-methylpentanoic Acid]
- Cell-Based mTORC1 Activation (mTORC1 signaling): D to F
- Activity of Leucine: % Activity [1]: A (a % activity relative to leucine of ≥40%)

Compound: CC(C)C[C@H](N)C(N)=O.Cl [Compound I-23]
- Cell-Based mTORC1 Activation (mTORC1 signaling): D to F
- Activity of Leucine: % Activity [1]: C (a % activity relative to leucine of between -40 and 40%)

Compound: N[C@@H](CC1CCC1)C(=O)O [Compound I-37]
- Cell-Based mTORC1 Activation (mTORC1 signaling): E to F
- Activity of Leucine: % Activity [1]: A (a % activity relative to leucine of ≥40%)

Compound: CC(C)(C)C[C@H](N)C(=O)O [Compound I-43]
- Cell-Based mTORC1 Activation (mTORC1 signaling): D to E
- Activity of Leucine: % Activity [1]: A (a % activity relative to leucine of ≥40%)

Compound: CC(C)C[C@H](N)C(=O)O [Leu, Leucine, reference compound]
- pS6 levels in rat brain (mTORC1): no activation was observed

Compound: COC(=O)[C@@H](N)CC(C)C [Compound I-168]
- Cell-Based mTORC1 Activation (mTORC1 signaling): D to E

Compound: NC(CCCC(F)(F)F)C(=O)O (stereo not shown) [Compound I-42]
- Cell-Based mTORC1 Activation (mTORC1 signaling): D to F
- Activity of Leucine: % Activity [1]: A (a % activity relative to leucine of ≥40%)

Compound: CC(C)(C)C[C@H](N)C(=O)O [γ-methylleucine]
- decrease in affinity of the CST antibody upon ligand binding [2]: not observed
